Source: patent US20060046972A1, “Cytotoxic nucleoside analog compound 003 for treating cancer” (Parker Hughes Institute, priority 2004, published 2006)

System: Lewis rats
Assay: Cumulative toxicity of intraperitoneal doses in Lewis rats
Type: in vivo
Parameters: RBC: unit not given here
Details: for ALC / ALT / ANC / AST / Albumin / Ammonia / Amylase / BUN / CPK / Calcium / Creatinine / Mean Weight Change (g ± SEM) / Mean Weight Change [%] / Morbidity / Phosphate / RBC / Total Bilirubin / Total Protein / Toxic Organ Lesions / Triglycerides / WBC / Weight Gain / Weight Loss: day 30
Description: 1.2.8 Animals Female CD-1 mice (Body weight: ˜25 g; Age: 7 week old) were purchased, from Charles River Laboratories (Willmington, Mass., USA). MMTV Neu-mice [FVB/N-TgN(MMTV neu)202MUL; Jackson Laboratory, Bar Harbor, Me.] were bred to produce multiple litters. All mice were housed in microisolator cages (Lab Products, Inc., Maywood, N.Y., USA) containing autoclaved bedding in a controlled specific pathogen-free (SPF) environment (12-h light/12-h dark photoperiod, 22±1° C., 60±10% relative humidity), which is fully accredited by the USDA (United States Department of Agriculture). Adult male Lewis rats (Body weight: ˜160 g) were obtained from the specific pathogen-free (SPF) breeding facilities of Harlan Sprague Dawley (Indianapolis, Id., USA) at 14 weeks of age. All husbandry and experimental contact made with the mice and rats maintained SPF conditions. The rats were kept in microisolater cages (Allentown Caging Equipment Co., Inc., Allentown, N.J., USA) containing autoclaved food, water, and bedding. Animal studies were approved by Parker Hughes Institute Animal Care and Use Committee and all animal care procedures 1.5 conformed to the Guide for the Care and Use of Laboratory Animals (National Research Council, National Academy Press, Washington D.C. 1996, USA).
The toxicity profile of Compound 003 in CD-1 mice and Lewis rats was examined, using standard procedures as previously reported for other experimental drugs (Uckun, et al., 2003, Arzneimittelforschun. 53:357; Uckun, et al., 2002, Clin Cancer Res. 8: 1224; Uckun, et al., 2002, Antimicrob Agents Chemother. 46:3428). In brief, mice and rats were treated with intraperitoneal injections of vehicle or Compound 003 at multiple dose levels. Compound 003 was administered as a 0.2 mL (for mice) or 0.5 mL (for rats) bolus injection containing 10% DMSO as a vehicle. Animals were allowed free access to autoclaved standard pellet food and tap water throughout the experiments and monitored daily for morbidity and mortality. Animals were electively sacrificed on day 7 or day 30 to determine the toxicity of Compound 003 by examining their blood chemistry profiles, blood counts, and evaluating multiple organs for the presence of toxic lesions. Blood was collected by intracardiac puncture following anesthesia with ketamine:xylazine and immediately heparinized. The blood chemistry profiles were examined using a Synchron CX5CE Chemical Analyzer (Beckman Instruments, Inc., Fullerton, Calif., USA). Blood counts (red blood cells [RBC], white blood cells [WBC] and platelets [Plt]) were determined using a HESKA Vet ABC-Diff Hematology Analyzer (HESKA Corporation, Fort Collins, Colo., USA). Absolute neutrophil counts (ANC) and absolute lymphocyte counts (ALC) were calculated from WBC values after determining the percentages of neutrophils and lymphocytes by a manual differential count. At the time of necropsy, […] from mice (bone, bone marrow, brain, cecum, heart, kidney, large intestine, liver, lung, lymph node, ovary, pancreas, skeletal muscle, skin, small intestine, spleen, stomach, thymus, thyroid gland, urinary bladder, and uterus, as available) and 21 different tissues from rats (bone, bone marrow, brain, coagulating gland, epididymis, heart, large intestine, small intestine, kidney, liver, lung, pancreas, peripheral nerve/spinal nerve, skeletal muscle, skin, spinal cord, spleen, stomach, testes, thymus, urinary bladder) were collected within 15 minutes after sacrifice, gross pathological findings were documented, organs were preserved in 10% neutral phosphate buffered formalin, and processed for histopathological examination. For histopathologic studies, formalin fixed tissues were dehydrated and embedded in paraffin by routine methods. Glass slides with affixed 4-5 micron tissue sections were prepared and stained with Hemotoxylin and Eosin (H&E). […]

[1] = 20 mg/kg i.p. for 30 consecutive days
[2] = 40 mg/kg i.p. for 30 consecutive days
[3] = 80 mg/kg i.p. for 30 consecutive days

With COC(=O)C(C)NP(=O)(OCC1OC(n2cc(C)c(=O)[nH]c2=O)CC1N=[N+]=[N-])Oc1ccc(OC)cc1 (stereo not shown) [Compound 003, 3′-azidothymidine 5′-[p-methoxyphenylmethoxyalaninyl phosphate]] the ALC [1] was 9.6 ± 0.0 ×10^9L, the ALT [1] was 68.0 ± 5.5 IU/L and the ANC [1] was 2.4 ± 0.0 ×10^9L. It also gave an AST [1] of 7.6 ± 1.6 IU/L, an Albumin [1] of 1.5 ± 0.0 g/dL and an Ammonia [1] of 77.2 ± 4.1 µmol/L. It also gave an Amylase [1] of 1667.1 ± 29.8 U/L, a BUN [1] of 21.8 ± 0.4 mg/dL and a CPK [1] of 546.1 ± 109.9 IU/L. The Calcium [1] was 10.9 ± 0.1 mg/dL, the Creatinine [1] was 0.6 ± 0.0 mg/dL and the “Mean Weight Change (g ± SEM)” value [1] was 9.02 ± 1.39 g. The “Mean Weight Change [%]” value [1] was “(2.68 ± 0.41%)”, the Morbidity [1] was 0/10 and the Phosphate [1] was 6.2 ± 0.2 mg/dL. For the same compound, the RBC [1] was 10.0 ± 0.1 ×10^9, the “Total Bilirubin” value [1] was 0.6 ± 0.1 mg/dL and the “Total Protein” value [1] was 6.3 ± 0.1 g/dL. The “Toxic Organ Lesions” value [1] was 0/10, the Triglycerides [1] was 87.4 ± 9.9 mg/dL and the WBC [1] was 11.9 ± 0.4 ×10^9/L. The “Weight Gain” value [1] was 10/10, the “Weight Loss” value [1] was 0/10 and the ALC [2] was 10.7 ± 0.0 ×10^9L. The ALT [2] was 64.2 ± 1.4 IU/L, the ANC [2] was 1.9 ± 0.0 ×10^9L and the AST [2] was 6.8 ± 1.0 IU/L. For the same compound, the Albumin [2] was 1.6 ± 0.0 g/dL, the Ammonia [2] was 91.4 ± 8.2 µmol/L and the Amylase [2] was 1586.3 ± 31.4 U/L. The BUN [2] was 21.8 ± 0.3 mg/dL, the CPK [2] was 409.4 ± 55.3 IU/L and the Calcium [2] was 10.4 ± 0.1 mg/dL. The Creatinine [2] was 0.5 ± 0.0 mg/dL, the “Mean Weight Change (g ± SEM)” value [2] was 9.66 ± 1.36 g and the “Mean Weight Change [%]” value [2] was “(2.85 ± 0.38%)”. The Morbidity [2] was 0/10, the Phosphate [2] was 5.6 ± 0.1 mg/dL and the RBC [2] was 10.1 ± 0.1 ×10^9. For the same compound, the “Total Bilirubin” value [2] was 0.6 ± 0.1 mg/dL, the “Total Protein” value [2] was 6.1 ± 0.1 g/dL and the “Toxic Organ Lesions” value [2] was 0/10. For the same compound, the Triglycerides [2] was 103.0 ± 10.7 mg/dL, the WBC [2] was 12.9 ± 0.4 ×10^9/L and the “Weight Gain” value [2] was 10/10. The “Weight Loss” value [2] was 0/10, the ALC [3] was 10.0 ± 0.0 ×10^9L and the ALT [3] was 62.5 ± 1.8 IU/L. For the same compound, the ANC [3] was 2.1 ± 0.0 ×10^9L, the AST [3] was 9.4 ± 0.7 IU/L and the Albumin [3] was 1.6 ± 0.0 g/dL. It also gave an Ammonia [3] of 92.8 ± 6.0 µmol/L, an Amylase [3] of 1658.3 ± 51.8 U/L and a BUN [3] of 22.7 ± 0.7 mg/dL. It also gave a CPK [3] of 371.0 ± 44.3 IU/L, a Calcium [3] of 10.5 ± 0.2 mg/dL and a Creatinine [3] of 0.6 ± 0.0 mg/dL. The “Mean Weight Change (g ± SEM)” value [3] was 7.37 ± 1.70 g, the “Mean Weight Change [%]” value [3] was “(2.24 ± 0.51%)” and the Morbidity [3] was 0/10. For the same compound, the Phosphate [3] was 5.9 ± 0.1 mg/dL, the RBC [3] was 9.8 ± 0.1 ×10^9 and the “Total Bilirubin” value [3] was 0.7 ± 0.1 mg/dL. The “Total Protein” value [3] was 6.3 ± 0.1 g/dL, the “Toxic Organ Lesions” value [3] was 0/10 and the Triglycerides [3] was 83.4 ± 11.2 mg/dL. The WBC [3] was 12.2 ± 0.3 ×10^9/L, the “Weight Gain” value [3] was 9/10 and the “Weight Loss” value [3] was 1/10. For the same compound, the postmortem gross pathology (20-80 mg/kg/day for 30 days) was “did not reveal any gross pathological findings”, the “Slight tubular degeneration, share of animals” value (80 and 40 mg/kg) was 50% and the “systemic toxicity by blood tests” value (day 30, 20-80 mg/kg/day) was “did not suggest any significant systemic toxicity”. The tolerability (i.p. daily for up to 30 days, daily dose as high as 80 mg/kg, cumulative as high as 2.4 g/kg) was “well tolerated”.
